Test results published in PubChem BioAssay AID1259407 (Chemical Carcinogenesis Research Information System (CCRIS), 2018).
Activity calls are given as the source filed them. No rule for the calls is given here.

Tested on: CCRIS mutagenicity, Ames/micronucleus/aberration tests
Test: CCRIS mutagenicity studies
[1] = Test System: AMES SALMONELLA TYPHIMURIUM, Strain/Indicator: TA98, Metabolic Activation: NONE, Method: STANDARD PLATE
[2] = Test System: AMES SALMONELLA TYPHIMURIUM, Strain/Indicator: TA98, Metabolic Activation: RAT, LIVER, S-9, AROCLOR 1254, Method: STANDARD PLATE
[3] = Test System: AMES SALMONELLA TYPHIMURIUM, Strain/Indicator: TA100, Metabolic Activation: NONE, Method: STANDARD PLATE
[4] = Test System: AMES SALMONELLA TYPHIMURIUM, Strain/Indicator: TA100, Metabolic Activation: RAT, LIVER, S-9, AROCLOR 1254, Method: STANDARD PLATE

Which results are given for `Nc1ccc(Cl)cc1Cl`?
mutagenic call (Test System: AMES SALMONELLA TYPHIMURIUM, Strain/Indicator: TA97, Metabolic Activation: HAMSTER, LIVER, S-9, AROCLOR 1254 (10 OR 30%), Method: PREINCUBATION): inactive; negative; mutagenic call (Test System: AMES SALMONELLA TYPHIMURIUM, Strain/Indicator: TA97, Metabolic Activation: NONE, Method: PREINCUBATION): inactive; negative; mutagenic call (Test System: AMES SALMONELLA TYPHIMURIUM, Strain/Indicator: TA97, Metabolic Activation: RAT, LIVER, S-9, AROCLOR 1254 (10 OR 30%), Method: PREINCUBATION): inactive; negative; mutagenic call (Test System: AMES SALMONELLA TYPHIMURIUM, Strain/Indicator: TA98, Metabolic Activation: HAMSTER, LIVER, S-9, AROCLOR 1254 (10%), Method: PREINCUBATION): inactive; negative; mutagenic call (Test System: AMES SALMONELLA TYPHIMURIUM, Strain/Indicator: TA98, Metabolic Activation: HAMSTER, LIVER, S-9, AROCLOR 1254 (30%), Method: PREINCUBATION): inactive; negative; mutagenic call (Test System: AMES SALMONELLA TYPHIMURIUM, Strain/Indicator: TA98, Metabolic Activation: NONE, Method: PREINCUBATION): inactive; negative; mutagenic call (Test System: AMES SALMONELLA TYPHIMURIUM, Strain/Indicator: TA98, Metabolic Activation: RAT, LIVER, S-9, AROCLOR 1254 (5 OR 30%), Method: PREINCUBATION): inactive; negative; mutagenic call (Test System: AMES SALMONELLA TYPHIMURIUM, Strain/Indicator: TA98, Metabolic Activation: RAT, LIVER, S-9, AROCLOR 1254 (10%), Method: PREINCUBATION): inactive; negative; mutagenic call (Test System: AMES SALMONELLA TYPHIMURIUM, Strain/Indicator: TA100, Metabolic Activation: HAMSTER, LIVER, S-9, AROCLOR 1254 (5%), Method: PREINCUBATION): inactive; negative; mutagenic call (Test System: AMES SALMONELLA TYPHIMURIUM, Strain/Indicator: TA100, Metabolic Activation: HAMSTER, LIVER, S-9, AROCLOR 1254 (10%), Method: PREINCUBATION): inactive; negative; mutagenic call (Test System: AMES SALMONELLA TYPHIMURIUM, Strain/Indicator: TA100, Metabolic Activation: HAMSTER, LIVER, S-9, AROCLOR 1254 (30%), Method: PREINCUBATION): inactive; negative; mutagenic call (Test System: AMES SALMONELLA TYPHIMURIUM, Strain/Indicator: TA100, Metabolic Activation: NONE, Method: PREINCUBATION): inactive; negative; mutagenic call (Test System: AMES SALMONELLA TYPHIMURIUM, Strain/Indicator: TA100, Metabolic Activation: RAT, LIVER, S-9, AROCLOR 1254 (10%), Method: PREINCUBATION): inactive; negative; mutagenic call (Test System: AMES SALMONELLA TYPHIMURIUM, Strain/Indicator: TA100, Metabolic Activation: RAT, LIVER, S-9, AROCLOR 1254 (30%), Method: PREINCUBATION): inactive; negative; mutagenic call (Test System: AMES SALMONELLA TYPHIMURIUM, Strain/Indicator: TA1535, Metabolic Activation: HAMSTER, LIVER, S-9, AROCLOR 1254 (10 OR 30%), Method: PREINCUBATION): inactive; negative; mutagenic call (Test System: AMES SALMONELLA TYPHIMURIUM, Strain/Indicator: TA1535, Metabolic Activation: NONE, Method: PREINCUBATION): inactive; negative; mutagenic call (Test System: AMES SALMONELLA TYPHIMURIUM, Strain/Indicator: TA1535, Metabolic Activation: RAT, LIVER, S-9, AROCLOR 1254 (10 OR 30%), Method: PREINCUBATION): inactive; negative; mutagenic call (Test System: AMES SALMONELLA TYPHIMURIUM, Strain/Indicator: TA1537, Metabolic Activation: HAMSTER, LIVER, S-9, AROCLOR 1254 (30%), Method: PREINCUBATION): inactive; negative; mutagenic call (Test System: AMES SALMONELLA TYPHIMURIUM, Strain/Indicator: TA1537, Metabolic Activation: NONE, Method: PREINCUBATION): inactive; negative; mutagenic call (Test System: AMES SALMONELLA TYPHIMURIUM, Strain/Indicator: TA1537, Metabolic Activation: RAT, LIVER, S-9, AROCLOR 1254 (30%), Method: PREINCUBATION): inactive; negative

With `CC(C)N(CC(O)COc1cccc2ccccc12)N=O` (configuration not stated) as the compound, how does the mutagenic call (Test System: UDS HUMAN HEPATOCYTES, Strain/Indicator: THY INCORP, Metabolic Activation: NONE, Method: AUTORADIOGRAPHY) read?
The mutagenic call was “active; positive”.

And the mutagenic call (Test System: UDS RAT HEPATOCYTES, Strain/Indicator: THY INCORP, Metabolic Activation: NONE, Method: AUTORADIOGRAPHY)?
Its mutagenic call is “active; positive”.

`CNCCN(Cc1ccc(OC)cc1)c1ccccn1` was tested. Which mutagenic call (Test System: AMES SALMONELLA TYPHIMURIUM, Strain/Indicator: TA97, Metabolic Activation: NONE, Method: STANDARD PLATE) did it give?
The mutagenic call was “inactive; negative”.

What about the mutagenic call (Test System: AMES SALMONELLA TYPHIMURIUM, Strain/Indicator: TA97, Metabolic Activation: RAT, LIVER, S-9, AROCLOR 1254, Method: STANDARD PLATE) of the same compound?
The mutagenic call was “inactive; negative”.

And the mutagenic call [1]?
Its mutagenic call is “inactive; negative”.

And the mutagenic call [2]?
The mutagenic call was “inactive; negative”.

What about the mutagenic call [3] of the same compound?
Its mutagenic call is “inactive; negative”.

And the mutagenic call [4]?
Its mutagenic call is “inactive; negative”.

And the mutagenic call (Test System: AMES SALMONELLA TYPHIMURIUM, Strain/Indicator: TA102, Metabolic Activation: NONE, Method: STANDARD PLATE)?
The mutagenic call was “inactive; negative”.

What about the mutagenic call (Test System: AMES SALMONELLA TYPHIMURIUM, Strain/Indicator: TA102, Metabolic Activation: RAT, LIVER, S-9, AROCLOR 1254, Method: STANDARD PLATE) of the same compound?
The mutagenic call was “inactive; negative”.

What does the source list for `c1ccc(-c2ccc(-c3ccccc3)cc2)cc1`?
mutagenic call (Test System: AMES SALMONELLA TYPHIMURIUM, Strain/Indicator: TA98, Metabolic Activation: HAMSTER, LIVER, S-9, AROCLOR 1254, Method: STANDARD PLATE): inactive; negative; mutagenic call [1]: inactive; negative; mutagenic call [2]: inactive; negative; mutagenic call (Test System: AMES SALMONELLA TYPHIMURIUM, Strain/Indicator: TA100, Metabolic Activation: HAMSTER, LIVER, S-9, AROCLOR 1254, Method: STANDARD PLATE): inactive; negative; mutagenic call [3]: inactive; negative; mutagenic call [4]: inactive; negative; mutagenic call (Test System: AMES SALMONELLA TYPHIMURIUM, Strain/Indicator: TA1535, Metabolic Activation: HAMSTER, LIVER, S-9, AROCLOR 1254, Method: STANDARD PLATE): inactive; negative; mutagenic call (Test System: AMES SALMONELLA TYPHIMURIUM, Strain/Indicator: TA1535, Metabolic Activation: NONE, Method: STANDARD PLATE): inactive; negative; mutagenic call (Test System: AMES SALMONELLA TYPHIMURIUM, Strain/Indicator: TA1535, Metabolic Activation: RAT, LIVER, S-9, AROCLOR 1254, Method: STANDARD PLATE): inactive; negative; mutagenic call (Test System: AMES SALMONELLA TYPHIMURIUM, Strain/Indicator: TA1537, Metabolic Activation: HAMSTER, LIVER, S-9, AROCLOR 1254, Method: STANDARD PLATE): inactive; negative; mutagenic call (Test System: AMES SALMONELLA TYPHIMURIUM, Strain/Indicator: TA1537, Metabolic Activation: NONE, Method: STANDARD PLATE): inactive; negative; mutagenic call (Test System: AMES SALMONELLA TYPHIMURIUM, Strain/Indicator: TA1537, Metabolic Activation: RAT, LIVER, S-9, AROCLOR 1254, Method: STANDARD PLATE): inactive; negative; mutagenic call (Test System: AMES SALMONELLA TYPHIMURIUM, Strain/Indicator: TA1538, Metabolic Activation: HAMSTER, LIVER, S-9, AROCLOR 1254, Method: STANDARD PLATE): inactive; negative; mutagenic call (Test System: AMES SALMONELLA TYPHIMURIUM, Strain/Indicator: TA1538, Metabolic Activation: NONE, Method: STANDARD PLATE): inactive; negative; mutagenic call (Test System: AMES SALMONELLA TYPHIMURIUM, Strain/Indicator: TA1538, Metabolic Activation: RAT, LIVER, S-9, AROCLOR 1254, Method: STANDARD PLATE): inactive; negative; mutagenic call (Test System: MOUSE LYMPHOMA, Strain/Indicator: L5178Y (TK+/TK-), Metabolic Activation: NONE, Method: SUSPENSION/PLATE): inactive; negative. reevaluation of results: negative; mutagenic call (Test System: MOUSE LYMPHOMA, Strain/Indicator: L5178Y (TK+/TK-), Metabolic Activation: RAT, LIVER, S-9, AROCLOR 1254, Method: SUSPENSION/PLATE): active; positive. reevaluation of results: equivocal
